In experiment [1] the test system is BDF1 mice, P388 leukemia ip. Put plainly: NCI In Vivo Anticancer Drug Screen. Data for tumor model P388 Leukemia (intraperitoneal) in B6D2F1 (BDF1) mice. Conditions: endpoint: mean survival time, higher = longer survival. The procedure, abridged: (§1)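 Read-out is survival of treated animals expressed relative to the vehicle group, as a T/C ratio.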
Experiment [2] concerns BDF1 mice, P388 leukemia ip, median survival T/C. The description is as above. Conditions: endpoint: median survival time, higher = longer survival. The procedure, abridged:
as §1

Where [3] appears, read: dose: 100.0 mg/kg/injection, schedule: Q01DX009 (ip), vehicle: saline with Tween-80.
The mark [4] stands for this setting: dose: 200.0 mg/kg/injection, schedule: Q01DX009 (ip), vehicle: saline with Tween-80.
[5] abbreviates: dose: 400.0 mg/kg/injection, schedule: Q01DX009 (ip), vehicle: saline with Tween-80.
[6] abbreviates: dose: 50.0 mg/kg/injection, schedule: Q01DX009 (ip), vehicle: saline with Tween-80.
[7] abbreviates: dose: 100.0 mg/kg/injection, schedule: Q04DX003 (ip), vehicle: saline with Tween-80.
The mark [8] stands for this setting: dose: 200.0 mg/kg/injection, schedule: Q04DX003 (ip), vehicle: saline with Tween-80.
Where [9] appears, read: dose: 400.0 mg/kg/injection, schedule: Q04DX003 (ip), vehicle: saline with Tween-80.

Each structure is given as a SMILES string. Several values for one entry are separate records, joined by “and”; a condition that tells them apart may be missing. Equal entries are not always repeated. Toxic doses and inconclusive results are not listed.

For the compound `CCOC(CN(Cc1ccc(OCc2ccccc2)c(OC)c1)S(=O)(=O)c1ccc(C)cc1)OCC`, the T/C in experiment [1] (dose: 25.0 mg/kg/injection, schedule: Q01DX009 (ip), vehicle: water) is 93 % of control; in experiment [1] (dose: 50.0 mg/kg/injection, schedule: Q01DX009 (ip), vehicle: water) it was 97 % of control; in experiment [1] (dose: 100.0 mg/kg/injection, schedule: Q01DX009 (ip), vehicle: water) it was 93 % of control; in experiment [1] (dose: 200.0 mg/kg/injection, schedule: Q01DX009 (ip), vehicle: water) it was 90 % of control.

For `CC1(C)C(=O)C(O)=C[C@H]2C1=CC[C@@H]1[C@]2(C)C(=O)C[C@]2(C)[C@@H]([C@@](C)(O)C(=O)CC(O)C(C)(C)O)C(O)C[C@@]12C` (some centres not stated), the T/C in experiment [1] (dose: 18.0 mg/kg/injection, schedule: Q01DX010 (ip), vehicle: carboxymethylcellulose (CMC)) was 99 % of control.

Regarding `C/C=C/c1cc2c(c(=O)o1)C(=O)[C@@H](O)[C@H](C)O2`, the T/C in experiment [1] (dose: 25.0 mg/kg/injection, schedule: Q01DX010 (ip), vehicle: carboxymethylcellulose (CMC)) is 119 % of control; in experiment [2] (dose: 11.0 mg/kg/injection, schedule: Q01DX010 (ip), vehicle: other) it was 120 % of control; in experiment [2] (dose: 25.0 mg/kg/injection, schedule: Q01DX010 (ip), vehicle: other), 154 % of control; in experiment [2] (dose: 50.0 mg/kg/injection, schedule: Q01DX010 (ip), vehicle: other), 150 % of control; in experiment [2] (dose: 100.0 mg/kg/injection, schedule: Q01DX010 (ip), vehicle: other), 150 % of control.

Consider `Cc1ccccc1N=P(c1ccccc1)(c1ccccc1)c1ccccc1`, for which the T/C in experiment [2] (dose: 50.0 mg/kg/injection, schedule: Q01DX009 (ip), vehicle: gum acacia) is 88 % of control; in experiment [2] (dose: 100.0 mg/kg/injection, schedule: Q01DX009 (ip), vehicle: gum acacia) it was 88 % of control; in experiment [2] (dose: 100.0 mg/kg/injection, schedule: Q04DX003 (ip), vehicle: gum acacia) it was 96 % of control; in experiment [2] (dose: 200.0 mg/kg/injection, schedule: Q04DX003 (ip), vehicle: gum acacia) it was 96 % of control.

On to `O=C(/C=C/c1ccc(Cl)cc1Cl)c1ccc(Cl)cc1`, for which the T/C in experiment [2] (setting [3]) was 104 % of control; in experiment [2] (setting [4]) it was 104 % of control; in experiment [2] (setting [5]), 100 % of control.

In the case of `COc1ccc(OC)c2c1C(=O)c1ccccc1C2=O`, the T/C in experiment [2] (dose: 25.0 mg/kg/injection, schedule: Q01DX009 (ip), vehicle: saline with Tween-80) is 100 % of control; in experiment [2] (setting [6]) it was 105 % of control; in experiment [2] (setting [3]), 90 % of control; in experiment [2] (setting [4]), 106 % of control; in experiment [2] (setting [5]), 103 % of control.

For the compound `O=C(CC(O)(C(F)(F)F)C(F)(F)F)c1ccc(Cl)cc1`, the results for the T/C in experiment [2] (setting [6]), in experiment [2] (setting [3]) and in experiment [2] (setting [4]) were 108 % of control, 95 % of control and 108 % of control, respectively.

As for `Nc1ncc([N+](=O)[O-])c(Cl)n1`, the T/C was 103 % of control in experiment [2] (setting [6]) and 111 % of control in experiment [2] (setting [3]).

`CCN(CC)CC(C)Nc1ccc([N+](=O)[O-])c2sc3ccccc3c(=O)c12` (configuration not stated): the T/C in experiment [2] (setting [7]) is 200 % of control; in experiment [2] (dose: 132.0 mg/kg/injection, schedule: Q04DX003 (ip), vehicle: saline with Tween-80), 209 % of control and 222 % of control; in experiment [2] (setting [8]), 272 % of control and 300 % of control and 195 % of control; in experiment [2] (dose: 300.0 mg/kg/injection, schedule: Q04DX003 (ip), vehicle: saline with Tween-80), 109 % of control and 118 % of control; in experiment [2] (setting [9]) it was 115 % of control.

With `C=C1C(=O)OC2CC(C)C3(O)CCC(C)(CC(OC(=O)C(C)C)C12)O3` (configuration not stated), the T/C in experiment [2] (dose: 40.0 mg/kg/injection, schedule: Q01DX009 (ip), vehicle: saline) is 100 % of control; in experiment [2] (dose: 50.0 mg/kg/injection, schedule: Q01DX009 (ip), vehicle: Klucel (hydroxypropylcellulose) (HPC)) it was 117 % of control; in experiment [2] (dose: 100.0 mg/kg/injection, schedule: Q01DX009 (ip), vehicle: Klucel (hydroxypropylcellulose) (HPC)), 117 % of control and 118 % of control.

Regarding `[O-][n+]1onc2c(-c3ccccc3)nnc(-c3ccccc3)c21`, the T/C is 104 % of control in experiment [2] (dose: 100.0 mg/kg/injection, schedule: Q04DX003 (ip), vehicle: saline sonified); 90 % of control in experiment [2] (dose: 200.0 mg/kg/injection, schedule: Q04DX003 (ip), vehicle: saline sonified); 100 % of control in experiment [2] (dose: 400.0 mg/kg/injection, schedule: Q04DX003 (ip), vehicle: saline sonified).

With `O=C(NC1=NN(c2ccccc2)C(=O)C1)c1ccccc1`, the T/C in experiment [2] (dose: 37.5 mg/kg/injection, schedule: Q01DX009 (ip), vehicle: saline with Tween-80) was 105 % of control; in experiment [2] (dose: 150.0 mg/kg/injection, schedule: Q01DX009 (ip), vehicle: saline with Tween-80) it was 96 % of control.

`O=c1cc(-c2ccccc2)[nH]c(=S)[nH]1`: the T/C in experiment [2] (setting [7]) was 95 % of control; in experiment [2] (setting [8]), 104 % of control; in experiment [2] (setting [9]) it was 100 % of control.

`CCOC(=S)Nc1ccc(F)cc1`: the T/C in experiment [2] (dose: 33.7 mg/kg/injection, schedule: Q01DX009 (ip), vehicle: saline with Tween-80) was 94 % of control; in experiment [2] (dose: 67.5 mg/kg/injection, schedule: Q01DX009 (ip), vehicle: saline with Tween-80), 103 % of control; in experiment [2] (dose: 135.0 mg/kg/injection, schedule: Q01DX009 (ip), vehicle: saline with Tween-80) it was 102 % of control.

For the compound `O=[N+]([O-])C(CO)(CO)CO`, the T/C in experiment [2] (dose: 100.0 mg/kg/injection, schedule: Q04DX003 (ip), vehicle: saline) is 95 % of control; in experiment [2] (dose: 200.0 mg/kg/injection, schedule: Q04DX003 (ip), vehicle: saline), 100 % of control; in experiment [2] (dose: 400.0 mg/kg/injection, schedule: Q04DX003 (ip), vehicle: saline) it was 100 % of control.

As for `CCOC(=O)N(C)c1ccc(Cl)cc1C(N)=O`, the T/C in experiment [2] (dose: 100.0 mg/kg/injection, schedule: Q04DX003 (ip), vehicle: Klucel (hydroxypropylcellulose) (HPC)) was 100 % of control; in experiment [2] (dose: 200.0 mg/kg/injection, schedule: Q04DX003 (ip), vehicle: Klucel (hydroxypropylcellulose) (HPC)), 94 % of control; in experiment [2] (dose: 400.0 mg/kg/injection, schedule: Q04DX003 (ip), vehicle: Klucel (hydroxypropylcellulose) (HPC)), 115 % of control.

(Values after PubChem BioAssay AID328 (DTP/NCI, 2004).)
